Measured values taken from patent publication US7691563B2, “Method for alleviating pain using sphingosine-1-phosphate and related compounds, and assays for identifying such compounds” (Sanofi-Aventis Pharma GmbH, priority 2003, dated 2010).
“And” between values parts separate entries of the source, which are not always exact repeats. Equal entries are not always repeated.

Legend:
[1] = system: adenylyl cyclase (AC); assay: AC activity assay, purified PAM added to spinal cord or DRG lysates; format: biochemical, rat; conditions: 30 nM PAM
Experimental: Panel B: Lysates of spinal cords or DRG (10 μg) were assayed for AC activity in the presence of 80 nM Gαs as described in Material and Methods. The mean ±SEM of at least 3 determinations done in triplicates is shown.
PAM purification was performed with some modifications as published previously (Scholich et al. 2001). Shortly, HeLa cells were grown in DMEM medium with 10% fetal bovine serum and 1% penicillin/streptoMycin. Confluent cells of forty 150 mm dishes were harvested with 1×PBS, 1 mM EDTA and pelleted for 5 minutes at 400×g. The cells were resuspended in TED buffer (50 mM Tris-HCl, pH 8.0, 1 mM EDTA, 1 mM DTT) containing 125 mM NaCl, 20 μg/ml of aprotinin, 20 μg/ml leupeptin, 1 mM benzamidine, 5 μg/ml soybean trypsin inhibitor and lysed by 2×5 seconds of sonication. The homogenate was centrifuged at 27000×g for 30 min at 4° C., and the supernatant was loaded on a Q-Sepharose XK16 column (Amersham, Pharmacia, Piscataway, N.J.) and eluted with a gradient of 150-350 mM NaCl in TED according to instructions of the manufacturer. The fractions were analyzed by Western blotting according to standard procedures; positive fractions were pooled and the NaCl concentration adjusted to 1 M. The protein was then loaded on a Phenyl-Sepharose XK16 column (Amersham, Pharmacia, Piscataway, N.J.) and washed with 300 mM NaCl in TED according to instructions of the manufacturer. The flow through and wash fractions contained PAM. They were pooled and the buffer exchanged for the aforementioned TED buffer containing 100 mM NaCl using Centricon 50 (Amicon, Beverly, Mass.) according to the manufacturer's instructions. The protein was then loaded on a MonoS 5/5 FPLC column (Amersham, Pharmacia, Piscataway, N.J.) and washed with the loading buffer (100 mM NaCl in TED) according to instructions of the manufacturer. The flow through was collected and applied to a Mono Q 5/5 FPLC column (Amersham, Pharmacia, Piscataway, N.J.). The protein was eluted with a gradient from 150-400 mM NaCl in TED. […]

[2] = system: PAM; assay: PAM translocation to the plasma membrane in HeLa cells (immunofluorescence); format: cell-based, human; conditions: HeLa cells, 0.5 μM S1P; PTX 1 μg/μl 24 hours; GF109203X 1 μM, others 10 μM, 20 minutes
Experimental: Panel B: HeLa cells were treated with 10% fetal bovine serum for different times and stained with anti-PAM antibodies to monitor the subcellular localization.
Panel B: HeLa cells were treated with 0.5 μM S1P for 30 minutes and stained with anti-PAM antibodies to monitor the subcellular localization.
Panel C: Time dependence of PAM translocation in HeLa cells. Serum-starved HeLa cells were treated with 0.5 μM S1P for different times and stained with anti-PAM antibodies to monitor the subcellular localization.
Panel D: HeLa cells were treated with 0.5 μM S1P for 20 minutes and stained with anti-PAM antibodies to monitor the subcellular localization. Prior S1P-treatment were the cells incubated for 24 hours with […] pertussis toxin (PTX), for 20 minutes with, 1 μM GF109203X, 10 μM U0126, BAPTA-AM, U73122 or Ro31-223.
To monitor distribution of PAM in HeLa cells, cells were grown on glass coverslips in DMEM with 10% FBS and 1% penicillin/streptoMycin (Gibco, Karlsruhe, Germany). To visualize translocation of PAM HeLa, cells were serum starved overnight and subsequently treated with 10% serum for 2 hours. Wherever indicated, cells were preincubated for 30 minutes in the presence of different concentrations of inhibitors. The cells were fixed in 4% paraformaldehyde (Sigma, Taufkirchen, Germany) in PBS for 10 minutes and then permeablized in 0.1% Triton X-100 for another 5 minutes. The coverslips were blocked for 1 hour in 3% BSA in PBS and then incubated for 1 hour with anti-PAM antibody (1:50 dilution). This was followed by incubation with FITC-labeled goat anti-rabbit antibody in PBS containing 3% BSA. The cells were then washed with PBS and mounted. For the analysis confocal (BioRad, Hercules, Calif.) and regular flourescence microscopes (Nikon, Duesseldorf, Germany) were used.

[3] = system: adenylyl cyclase (AC); assay: AC activity of HeLa cell lysates after treatment of cells; format: cell-based, human; conditions: for effect on serum-induced inhibition of Gαs- and forskolin-stimulated AC activity: HeLa cells transfected with ODN (3 μM), 30 minutes 10% FBS; for effect of pre-treatment on S1P inhibition of Gαs-stimulated AC activity: HeLa cells, 0.5 μM S1P, PTX 1 μg/μl 24 hours, inhibitors 10 μM 20 minutes, ODN 3 μM, 60 minutes S1P
Experimental: Panel B: Adenylyl cyclase activity of HeLa cell lysates was measured in the absence and presence of serum as described in Materials and Methods section. The Gsα* (80 nM; grey bars)- and forskolin (100 μM; black bars)-stimulated specific activities of ACV were 124±10 pmol/mg/min and 464±89 pmol/min/mg, respectively. The basal activity was 11.75±2 pmol/mg/min. The mean ±SE of at least 2 experiments each done in triplicates is shown. Student T test: *p<0.001.
Panel E: Serum-starved HeLa cells were treated with sense, antisense, and 3M-as ODNs as described above. After 24 hours the cells were incubated for 30 minutes with 10% FBS. Cells were harvested and AC activity in presence of Gαs* (80 nM; grey bars) and forskolin (100 μM; black bars) was determined as described above. Data from at least 3 experiments measured in triplicates are presented as the mean±SEM. Student T test: *p<0.01, **p<0.05.
Panel B: Serum-starved HeLa cells were treated for varying times with 0.5 μM S1P. Cells were harvested and AC activity in presence of 80 nM Gαs* was determined as described in Material and Methods. Data from at least 4 experiments measured in triplicates are presented as the mean ±SE.
Panel C: Serum-starved HeLa cells were treated with sense, antisense, and 3M-as ODNs as described in the Materials and Methods section. After 24 hours the cells were incubated for the indicated times with 0.5 μM S1P. Cells were harvested and AC activity in presence of Gαs* (80 nM) was determined as described above. Data are presented as the mean ±SEM of three determinations.
Panel A: Serum-starved HeLa cells were treated with 0.5 μM S1P for 3 (grey bars) or 60 (black bars) minutes. Prior incubation with S1P the cells were incubated for 24 hours with […] pertussis toxin (PTX). AC activity in was determined presence of 80 nM Gαs*. Data from at least 2 experiments measured in triplicates are presented as the mean ±SE.
Panel B: Serum-starved HeLa cells were treated with 0.5 μM S1P. Prior incubation with S1P the cells were incubated for 20 minutes with 10 μM U73122, R031-8220, BAPTA-AM or U0126. AC activity in was determined presence of 80 nM Gαs*. Data from at least 2 experiments measured in triplicates are presented as the mean ±SE.
Spinal cords were lysed in 25 mM Hepes, pH 7.4, 1 mM EGTA and cell membranes were prepared as described by Kassis and Fishman. Aliquots were stored at −80° C. until use. AC activity assays were performed in a volume of 100 μl for 15 min at room temperature in the presence of 100 μM MgCl2 as previously described (Patel et al., 2002). Gsα* (80 nM) or forskolin (100 μM) were used to stimulate AC enzyme activity in membranes (10 μg protein).
The sequences of the oligodeoxynucleotides (ODNs) were chosen as published previously (Scholich et al., 2001). Sense: 5′-CTGTTCATGCCGGTT-3′, antisense: 5′-AACCGGCATGAACAG-3′, and antisense ODN harboring three mutations (3M-as; mutations are underlined): 5′-AATCCGTATGAACAC-3′. HeLa-cells were plated on 35 mm dishes (300,000 cells) and grown in DMEM medium (Gibco, Karlsruhe, Germany) containing 10% FBS and 1% penicillin/streptoMycin for 24 hours. The ODNs (3 μM each) were introduced into the cells by transfections using Tfx20 (Promega, Madison, Wis.) in 1 ml serum-free medium according to the instructions of the manufacturer. Two hours later, 1 ml DMEM (Gibco, Karlsruhe, Germany) containing 10% FBS was added. The cells were then incubated for 6 hours. Then the medium was exchanged against serum-free DMEM (Gibco, Karlsruhe, Germany), followed by an incubation for 16 hours in serum-free DMEM (Gibco, Karlsruhe, Germany) before being treated with 10% serum or […] S1P. The cells were then used for Western blots by adding boiling 1× Laemmli buffer or they were havested for AC activity assays as described above.

Row | Molecule | effect of pre-treatment on S1P-induced PAM translocation [2] | effect of pre-treatment on S1P inhibition of Gαs-stimulated AC activity [3] | other results
1 | PAM: Protein Associated with Myc, giant protein of 510 kDa, full length purified from HeLa cells | – | – | decrease of Gαs-stimulated AC activity ([1]; DRG lysates): 32%; inhibition of Gαs-stimulated AC activity ([1]; spinal cord lysates of animals treated for 1 hour with formalin): 25%; decrease of Gαs-stimulated AC activity ([1]; spinal cord lysates of control animals): 50% and 49%
2 | CN(C)CCCn1cc(C2=C(c3c[nH]c4ccccc34)C(=O)NC2=O)c2ccccc21 [GF109203X, reference compound] | eliminated | – | –
3 | sense ODN: sense ODN used in HeLa cells, 5′-CTGTTCATGCCGGTT-3′ (DNA, backbone and methylation of C not given here) | – | – | effect on serum-induced inhibition of Gαs- and forskolin-stimulated AC activity [3]: no influence
4 | C=C[C@@]1(C)CC(=O)[C@]2(O)[C@@]3(C)[C@@H](O)CCC(C)(C)[C@@H]3[C@H](O)[C@H](OC(C)=O)[C@@]2(C)O1 [forskolin] | – | – | forskolin-stimulated specific activity of AC ([3]; HeLa cell lysates, 100 μM forskolin): 464 ± 89 pmol/min/mg
5 | Cn1cc(C2=C(c3cn(CCCSC(=N)N)c4ccccc34)C(=O)NC2=O)c2ccccc21 [RO 31-8220] | – | eliminated | –
6 | COc1ccc2c(c1)CC[C@@H]1[C@@H]2CC[C@]2(C)[C@@H](NCCCCCCN3C(=O)C=CC3=O)CC[C@@H]12 [U73122, reference compound] | abolished | abolished | –
7 | 3M-as: antisense ODN harboring three mutations, HeLa cells, 5′-AATCCGTATGAACAC-3′ (DNA, backbone and methylation of C not given here) | – | – | effect on serum-induced inhibition of Gαs- and forskolin-stimulated AC activity [3]: no influence
8 | CC(=O)OCOC(=O)CN(CC(=O)OCOC(C)=O)c1ccccc1OCCOc1ccccc1N(CC(=O)OCOC(C)=O)CC(=O)OCOC(C)=O [BAPTA-AM, reference compound] | did not interfere | – | –
9 | Pertussis toxin [reference compound] | eliminated | eliminated | –
